Test results as given in patent US8344008B2 (Janssen Pharmaceutica NV, priority 2007, dated 2013).

molecular target: T1, recombinant human LTA4 hydrolase (rhLTA4H) (Homo sapiens, UniProt P09960); experiment: Recombinant Human LTA4 Hydrolase Assay for LTA4 Hydrolase Inhibitor Activity; assay type: biochemical; details: average of results obtained; LTB4 quantified by enzyme-linked immunoassay
T1 construct: made in house; host or cells: Spodoptera frugiperda (Sf-9) cells, baculovirus (pFastBac1)
T1 sequence (P09960 1-611): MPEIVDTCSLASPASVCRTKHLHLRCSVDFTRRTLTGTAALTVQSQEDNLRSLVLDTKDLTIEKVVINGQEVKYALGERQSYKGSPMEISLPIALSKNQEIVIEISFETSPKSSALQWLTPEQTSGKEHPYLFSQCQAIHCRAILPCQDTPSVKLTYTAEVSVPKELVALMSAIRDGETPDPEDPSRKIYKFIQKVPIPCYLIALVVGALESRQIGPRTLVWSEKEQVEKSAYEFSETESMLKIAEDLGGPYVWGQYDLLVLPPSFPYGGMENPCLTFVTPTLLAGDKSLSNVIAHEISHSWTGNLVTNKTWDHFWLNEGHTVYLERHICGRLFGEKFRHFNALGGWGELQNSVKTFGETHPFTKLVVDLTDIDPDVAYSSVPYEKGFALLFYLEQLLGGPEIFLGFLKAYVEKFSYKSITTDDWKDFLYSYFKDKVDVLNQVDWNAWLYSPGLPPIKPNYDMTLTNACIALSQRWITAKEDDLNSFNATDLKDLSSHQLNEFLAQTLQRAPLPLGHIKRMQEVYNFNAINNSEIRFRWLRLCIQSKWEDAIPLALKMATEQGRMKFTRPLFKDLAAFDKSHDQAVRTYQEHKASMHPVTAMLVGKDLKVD
Outline: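 Baculovirus/Sf-9-expressed human LTA4 hydrolase (36 ng) preincubated with compound 10 min at rt in 0.1 M potassium phosphate pH 7.4, 5 mg/mL fatty-acid-free BSA. Reaction started with 9 ng LTA4 free acid, run 10 min at rt; LTB4 measured by enzyme immunoassay, IC50 from 4-parameter fit.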

Row | Ki [nM] | SMILES
1 | 693 | CS(=O)(=O)N1CC2CCC(C1)N2CCOc1ccc(Oc2nc3ccc(Cl)cc3s2)cc1 [Example 169, meso-6-Chloro-2-{4-[2-(3-methanesulfonyl-3,8-diaza-bicyclo[3.2.1]oct-8-yl)-ethoxy]-phenoxy}-benzothiazole]
2 | 90 | CC(=O)N1C[C@@H]2C[C@H]1CN2Cc1ccc(Oc2nc3cc(F)ccc3s2)cc1 [Example 170, (S,S)-1-{5-[4-(5-Fluoro-benzothiazol-2-yloxy)-benzyl]-2,5-diaza-bicyclo[2.2.1]hept-2-yl}-ethanone]
3 | 224 | NC(=O)N1[C@@H]2CC[C@H]1C[C@H](NCc1ccc(Oc3nc4cccc(F)c4s3)cc1)C2 [Example 171, meso-endo-3-[4-(7-Fluoro-benzothiazol-2-yloxy)-benzylamino]-8-aza-bicyclo[3.2.1]octane-8-carboxylic acid amide]
4 | 1050 | CC(=O)N1[C@@H]2CC[C@H]1C[C@@H](NCCOc1ccc(Oc3nc4ccc(C)cc4s3)cc1)C2 [Example 172, meso-exo-1-(3-{2-[4-(6-Methyl-benzothiazol-2-yloxy)-phenoxy]-ethylamino}-8-aza-bicyclo[3.2.1]oct-8-yl)-ethanone]

Second part, the compound before the results:

Row | SMILES | Ki [nM]
5 | CC(=O)N[C@H]1C[C@H]2CC[C@@H](C1)N2Cc1ccc(Oc2nc3c(F)cccc3s2)cc1F [Example 160, meso-endo-N-{8-[2-Fluoro-4-(4-fluoro-benzothiazol-2-yloxy)-benzyl]-8-aza-bicyclo[3.2.1]oct-3-yl}-acetamide] | 1
6 | NC(=O)N1CC2CN(Cc3ccc(Oc4nc5c(F)cccc5s4)cc3F)CC2C1 (stereo not shown) [Example 161, 5-[2-Fluoro-4-(4-fluoro-benzothiazol-2-yloxy)-benzyl]-hexahydro-pyrrolo[3,4-c]pyrrole-2-carboxylic acid amide] | 43
7 | CS(=O)(=O)N[C@@H]1C[C@H]2CC[C@@H](C1)N2CCc1ccc(Oc2nc3c(Cl)cccc3s2)cc1 [Example 162, meso-exo-N-(8-{2-[4-(4-Chloro-benzothiazol-2-yloxy)-phenyl]-ethyl}-8-aza-bicyclo[3.2.1]oct-3-yl)-methanesulfonamide] | 188
8 | CC(=O)N[C@@H]1C[C@H]2CC[C@@H](C1)N2CCc1ccc(Oc2nc3ccc(Cl)cc3s2)cc1 [Example 163, meso-exo-N-(8-{2-[4-(6-Chloro-benzothiazol-2-yloxy)-phenyl]-ethyl}-8-aza-bicyclo[3.2.1]oct-3-yl)-acetamide] | 86
9 | CC(=O)N1C[C@H]2C[C@@H]1CN2Cc1ccc(Oc2nc3c(Cl)cccc3s2)cc1 [Example 164, (R,R)-1-{5-[4-(4-Chloro-benzothiazol-2-yloxy)-benzyl]-2,5-diaza-bicyclo[2.2.1]hept-2-yl}-ethanone] | 417
10 | CC(=O)N1[C@@H]2CC[C@H]1C[C@H](NCc1ccc(Oc3nc4cc(F)ccc4s3)cc1)C2 [Example 165, meso-exo-1-{3-[4-(5-Fluoro-benzothiazol-2-yloxy)-benzylamino]-8-aza-bicyclo[3.2.1]oct-8-yl}-ethanone] | 414
11 | CC(=O)N1[C@@H]2CC[C@H]1C[C@H](NCc1ccc(Oc3nc4cccc(Cl)c4s3)cc1)C2 [Example 166, meso-exo-1-{3-[4-(7-Chloro-benzothiazol-2-yloxy)-benzylamino]-8-aza-bicyclo[3.2.1]oct-8-yl}-ethanone] | 1900
12 | CS(=O)(=O)N[C@H]1C[C@H]2CC[C@@H](C1)N2Cc1ccc(Oc2nc3c(Cl)cccc3s2)cc1 [Example 167, meso-endo-N-{8-[4-(4-Chloro-benzothiazol-2-yloxy)-benzyl]-8-aza-bicyclo[3.2.1]oct-3-yl}-methanesulfonamide] | 33
13 | CS(=O)(=O)N1C[C@H]2C[C@@H]1CN2CCOc1ccc(Oc2nc3cc(F)ccc3s2)cc1 [Example 168, (R,R)-5-Fluoro-2-{4-[2-(5-methanesulfonyl-2,5-diaza-bicyclo[2.2.1]hept-2-yl)-ethoxy]-phenoxy}-benzothiazole] | 128
